Tests used:
Jurkat [1] = experiment: Antiproliferative activity against human Jurkat cells assessed as cell viability after 72 hrs by MTT assay; assay type: functional, cell-based
MCF7 [2] = experiment: Selectivity index, ratio of IC50 for HUVEC to IC50 for human MCF7 cells
A549 [3] = experiment: Antiproliferative activity against human A549 cells assessed as cell viability after 72 hrs by MTT assay; assay type: functional, cell-based; settings: A549, 72 h
HeLa [4] = experiment: Selectivity index, ratio of IC50 for HUVEC to IC50 for human HeLa cells
HUVEC = experiment: Cytotoxicity against HUVEC assessed as cell viability after 48 hrs by MTT assay; assay type: cell-based; settings: Homo sapiens
CCRF-CEM [5] = experiment: Selectivity index, ratio of IC50 for HUVEC to IC50 for human CCRF-CEM cells
MCF7 [6] = experiment: Antiproliferative activity against human MCF7 cells assessed as cell viability after 72 hrs by MTT assay; assay type: functional, cell-based; settings: MCF7, 72 h
HeLa [7] = experiment: Antiproliferative activity against human HeLa cells assessed as cell viability after 72 hrs by MTT assay; assay type: functional, cell-based
[8] = Selectivity index, ratio of IC50 for HUVEC to IC50 for human MDA-MB-231 cells
MDA-MB-231 [9] = experiment: Antiproliferative activity against human MDA-MB-231 cells assessed as cell viability after 72 hrs by MTT assay; assay type: functional, cell-based; settings: MDA-MB-231, 72 h
A549 [10] = experiment: Selectivity index, ratio of IC50 for HUVEC to IC50 for human A549 cells
Jurkat [11] = experiment: Selectivity index, ratio of IC50 for HUVEC to IC50 for human Jurkat cells
CCRF-CEM [12] = experiment: Antiproliferative activity against human CCRF-CEM cells assessed as cell viability after 72 hrs by MTT assay; assay type: functional, cell-based
MDA-MB-231 [13] = experiment: Potency index, ratio of etoposide IC50 to compound IC50 for human MDA-MB-231 cells; assay type: functional

SMILES: c1ccc(NC2=NCc3c([nH]c4ccccc34)S2)cc1
- IC50 (Jurkat [1]): 9.5 µM
- Ratio IC50 (MCF7 [2]): 3
- IC50 (A549 [3]): 34.1 µM
- Ratio IC50 (HeLa [4]): >3.7
- IC50 (HUVEC): > 100 µM
- Ratio IC50 (CCRF-CEM [5]): >11
- IC50 (MCF7 [6]): 31.6 µM
- IC50 (HeLa [7]): 27 µM
- Ratio IC50 [8]: >8
- IC50 (MDA-MB-231 [9]): 12.2 µM
- Ratio IC50 (A549 [10]): >2.9
- Ratio IC50 (Jurkat [11]): >10
- IC50 (CCRF-CEM [12]): 9 µM

SMILES: Clc1ccc(NC2=NCc3c([nH]c4ccccc34)S2)cc1
- IC50 (Jurkat [1]): 9.8 µM
- Ratio IC50 (MCF7 [2]): 0.3
- IC50 (A549 [3]): 7.4 µM
- Ratio IC50 (HeLa [4]): 0.3
- IC50 (HUVEC): 8.5 µM
- Ratio IC50 (CCRF-CEM [5]): 0.3
- IC50 (MCF7 [6]): 30 µM
- IC50 (HeLa [7]): 32.4 µM
- Ratio IC50 [8]: 1.2
- IC50 (MDA-MB-231 [9]): 7.2 µM
- Ratio IC50 (A549 [10]): 1.1
- Ratio IC50 (Jurkat [11]): 0.8
- IC50 (CCRF-CEM [12]): 29.8 µM
- Ratio IC50 (MDA-MB-231 [13]): 2

SMILES: COc1ccc(NC2=NCc3c([nH]c4ccccc34)S2)cc1
- IC50 (Jurkat [1]): 8.2 µM
- Ratio IC50 (MCF7 [2]): 1.8
- IC50 (A549 [3]): 30.1 µM
- Ratio IC50 (HeLa [4]): 3.7
- IC50 (HUVEC): 51 µM
- Ratio IC50 (CCRF-CEM [5]): >5.1
- IC50 (MCF7 [6]): 28.7 µM
- IC50 (HeLa [7]): 13.9 µM
- Ratio IC50 [8]: 7
- IC50 (MDA-MB-231 [9]): 7.3 µM
- Ratio IC50 (A549 [10]): 1.7
- Ratio IC50 (Jurkat [11]): 6.2
- IC50 (CCRF-CEM [12]): < 10 µM
- Ratio IC50 (MDA-MB-231 [13]): 2

SMILES: Cc1ccc(NC2=NCc3c([nH]c4ccccc34)S2)cc1
- IC50 (Jurkat [1]): 8 µM
- Ratio IC50 (MCF7 [2]): 3.1
- IC50 (A549 [3]): 31.2 µM
- Ratio IC50 (HeLa [4]): >3.6
- IC50 (HUVEC): > 100 µM
- Ratio IC50 (CCRF-CEM [5]): >20
- IC50 (MCF7 [6]): 32.1 µM
- IC50 (HeLa [7]): 27.5 µM
- Ratio IC50 [8]: >12.6
- IC50 (MDA-MB-231 [9]): 7.9 µM
- Ratio IC50 (A549 [10]): >3.2
- Ratio IC50 (Jurkat [11]): >12.5
- IC50 (CCRF-CEM [12]): 5 µM
- Ratio IC50 (MDA-MB-231 [13]): 2

SMILES: O=[N+]([O-])c1ccc(NC2=NCc3c([nH]c4ccccc34)S2)cc1
- IC50 (Jurkat [1]): 7.4 µM
- Ratio IC50 (MCF7 [2]): 7.5
- IC50 (A549 [3]): 32 µM
- Ratio IC50 (HeLa [4]): 6.2
- IC50 (HUVEC): 58 µM
- Ratio IC50 (CCRF-CEM [5]): 11.6
- IC50 (MCF7 [6]): 7.7 µM
- IC50 (HeLa [7]): 9.3 µM
- Ratio IC50 [8]: 10.7
- IC50 (MDA-MB-231 [9]): 5.4 µM
- Ratio IC50 (A549 [10]): 1.8
- Ratio IC50 (Jurkat [11]): 7.8
- IC50 (CCRF-CEM [12]): 5 µM
- Ratio IC50 (MDA-MB-231 [13]): 2

SMILES: FC(F)(F)c1ccc(NC2=NCc3c([nH]c4ccccc34)S2)cc1
- IC50 (Jurkat [1]): 10 µM
- Ratio IC50 (MCF7 [2]): 1.9
- IC50 (A549 [3]): 40.8 µM
- Ratio IC50 (HeLa [4]): 0.9
- IC50 (HUVEC): 68.5 µM
- Ratio IC50 (CCRF-CEM [5]): 6.9
- IC50 (MCF7 [6]): 35.7 µM
- IC50 (HeLa [7]): 72.4 µM
- Ratio IC50 [8]: 1.9
- IC50 (MDA-MB-231 [9]): 36.2 µM
- Ratio IC50 (A549 [10]): 1.7
- Ratio IC50 (Jurkat [11]): 6.9
- IC50 (CCRF-CEM [12]): 10 µM

SMILES: FC(F)(F)c1cc(NC2=NCc3c([nH]c4ccccc34)S2)cc(C(F)(F)F)c1
- IC50 (Jurkat [1]): 7.5 µM
- Ratio IC50 (MCF7 [2]): 1.3
- IC50 (A549 [3]): 70.1 µM
- Ratio IC50 (HeLa [4]): 0.7
- IC50 (HUVEC): 49.6 µM
- Ratio IC50 (CCRF-CEM [5]): 6.6
- IC50 (MCF7 [6]): 38.7 µM
- IC50 (HeLa [7]): 69.8 µM
- Ratio IC50 [8]: 1.3
- IC50 (MDA-MB-231 [9]): 37.1 µM
- Ratio IC50 (A549 [10]): 0.7
- Ratio IC50 (Jurkat [11]): 6.6
- IC50 (CCRF-CEM [12]): 7.5 µM

SMILES: CO[C@H]1N(C(=O)OC(C)(C)C)c2ccccc2[C@@]12CN=C(SC)S2 (racemic)
- IC50 (Jurkat [1]): 37.3 µM
- IC50 (A549 [3]): 70.5 µM
- IC50 (MCF7 [6]): 70.2 µM
- IC50 (HeLa [7]): 74.3 µM
- IC50 (MDA-MB-231 [9]): 87 µM
- IC50 (CCRF-CEM [12]): 37.9 µM

SMILES: CO[C@@H]1N(C(=O)OC(C)(C)C)c2ccccc2[C@@]12CN=C(SC)S2 (racemic)
- IC50 (Jurkat [1]): 43.4 µM
- IC50 (A549 [3]): 96.3 µM
- IC50 (MCF7 [6]): 100 µM
- IC50 (HeLa [7]): 77.6 µM
- IC50 (MDA-MB-231 [9]): 97.7 µM
- IC50 (CCRF-CEM [12]): 41.9 µM

SMILES: CO[C@H]1N(C(=O)OC(C)(C)C)c2ccccc2[C@@]12CN=C(Nc1ccccc1)S2 (racemic)
- IC50 (Jurkat [1]): 10 µM
- IC50 (A549 [3]): 29.2 µM
- IC50 (MCF7 [6]): 6.2 µM
- IC50 (HeLa [7]): 31.7 µM
- IC50 (MDA-MB-231 [9]): 40.3 µM
- IC50 (CCRF-CEM [12]): 12.2 µM

SMILES: CO[C@@H]1N(C(=O)OC(C)(C)C)c2ccccc2[C@@]12CN=C(Nc1ccccc1)S2 (racemic)
- IC50 (Jurkat [1]): 19 µM
- IC50 (A549 [3]): 34 µM
- IC50 (MCF7 [6]): 32 µM
- IC50 (HeLa [7]): 28 µM
- IC50 (MDA-MB-231 [9]): 34 µM
- IC50 (CCRF-CEM [12]): 22 µM

SMILES: CO[C@H]1N(C(=O)OC(C)(C)C)c2ccccc2[C@@]12CN=C(Nc1ccc(Br)cc1)S2 (racemic)
- IC50 (Jurkat [1]): 8 µM
- IC50 (A549 [3]): 33 µM
- IC50 (MCF7 [6]): 29.5 µM
- IC50 (HeLa [7]): 28 µM
- IC50 (MDA-MB-231 [9]): 31.5 µM
- IC50 (CCRF-CEM [12]): 5 µM

SMILES: CO[C@@H]1N(C(=O)OC(C)(C)C)c2ccccc2[C@@]12CN=C(Nc1ccc(Br)cc1)S2 (racemic)
- IC50 (Jurkat [1]): 30 µM
- IC50 (A549 [3]): 76 µM
- IC50 (MCF7 [6]): 78 µM
- IC50 (HeLa [7]): 65.5 µM
- IC50 (MDA-MB-231 [9]): > 100 µM
- IC50 (CCRF-CEM [12]): 50 µM

SMILES: CO[C@H]1N(C(=O)OC(C)(C)C)c2ccccc2[C@@]12CN=C(Nc1ccc(F)cc1)S2 (racemic)
- IC50 (Jurkat [1]): 19 µM
- IC50 (A549 [3]): 30 µM
- IC50 (MCF7 [6]): 30 µM
- IC50 (HeLa [7]): 29 µM
- IC50 (MDA-MB-231 [9]): 30 µM
- IC50 (CCRF-CEM [12]): 27 µM

SMILES: CO[C@@H]1N(C(=O)OC(C)(C)C)c2ccccc2[C@@]12CN=C(Nc1ccc(F)cc1)S2 (racemic)
- IC50 (Jurkat [1]): 15 µM
- IC50 (A549 [3]): 34 µM
- IC50 (MCF7 [6]): 30.5 µM
- IC50 (HeLa [7]): 27.5 µM
- IC50 (MDA-MB-231 [9]): 32.5 µM
- IC50 (CCRF-CEM [12]): 14.5 µM

SMILES: CO[C@H]1N(C(=O)OC(C)(C)C)c2ccccc2[C@@]12CN=C(Nc1ccc(Cl)cc1)S2 (racemic)
- IC50 (Jurkat [1]): 23.5 µM
- IC50 (A549 [3]): 26 µM
- IC50 (MCF7 [6]): 36.5 µM
- IC50 (HeLa [7]): 20.8 µM
- IC50 (MDA-MB-231 [9]): 42 µM
- IC50 (CCRF-CEM [12]): 26.5 µM

SMILES: COn1cc(CNC(=S)SC)c2ccccc21 [1-METHOXYBRASSININ]
- IC50 (Jurkat [1]): 37.5 µM
- IC50 (A549 [3]): > 100 µM
- IC50 (MCF7 [6]): > 100 µM
- IC50 (HeLa [7]): > 100 µM
- IC50 (MDA-MB-231 [9]): > 100 µM
- IC50 (CCRF-CEM [12]): 63.5 µM

SMILES: CSC(=S)NCc1c[nH]c2ccccc12 [BRASSININ]
- IC50 (Jurkat [1]): > 100 µM
- IC50 (A549 [3]): > 100 µM
- IC50 (MCF7 [6]): > 100 µM
- IC50 (HeLa [7]): > 100 µM
- IC50 (MDA-MB-231 [9]): > 100 µM
- IC50 (CCRF-CEM [12]): 90.2 µM

SMILES: COc1ccc(/C=C\c2cc(OC)c(OC)c(OC)c2)cc1O [COMBRETASTATIN A4]
- Ratio IC50 (MCF7 [2]): 2
- IC50 (HUVEC): 0.005 µM

SMILES: CSC1=NCc2c([nH]c3ccccc23)S1 [CYCLOBRASSININ]
- IC50 (Jurkat [1]): 29.5 µM
- Ratio IC50 (MCF7 [2]): 0.8
- IC50 (A549 [3]): 70.3 µM
- Ratio IC50 (HeLa [4]): 1
- IC50 (HUVEC): 57.9 µM
- Ratio IC50 (CCRF-CEM [5]): 2.2
- IC50 (MCF7 [6]): 72 µM
- IC50 (HeLa [7]): 57.2 µM
- Ratio IC50 [8]: 1.2
- IC50 (MDA-MB-231 [9]): 48.3 µM
- Ratio IC50 (A549 [10]): 0.8
- Ratio IC50 (Jurkat [11]): 1.9
- IC50 (CCRF-CEM [12]): 26.2 µM

SMILES: COc1cccc2c1C(=O)c1c(O)c3c(c(O)c1C2=O)C[C@@](O)(C(=O)CO)C[C@@H]3O[C@H]1C[C@H](N)[C@H](O)[C@H](C)O1 [DOXORUBICIN]
- IC50 (HUVEC): 0.0807 µM

SMILES: COc1cc([C@@H]2c3cc4c(cc3[C@@H](O[C@@H]3O[C@@H]5CO[C@@H](C)O[C@H]5[C@H](O)[C@H]3O)[C@H]3COC(=O)[C@H]23)OCO4)cc(OC)c1O [ETOPOSIDE]
- Ratio IC50 (MCF7 [2]): 0.11
- Ratio IC50 (HeLa [4]): 0.32
- IC50 (HUVEC): 1.25 µM
- Ratio IC50 (CCRF-CEM [5]): 1.14
- Ratio IC50 [8]: 0.06
- Ratio IC50 (A549 [10]): 0.09
- Ratio IC50 (Jurkat [11]): 1.04
